We go through 31 compounds from PubChem BioAssay (NCI).

Molecules are shown by their SMILES. “And” between values parts separate entries of the source, which are not always exact repeats. Equal entries are not always repeated.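 Interpolation was linear, between the two tested concentrations surrounding the appropriate level; five concentrations were tested over 48 hours in 96-well plates. Abbreviation: GI50, concentration required for 50% inhibition of growth. At the TGI there is no net growth.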 Where a SMILES comes first, the peptide text is derived from it. The star is where a group is joined. Boc = CC(C)(C)OC(=O)*

What all share (experiment): DTP human tumour cell line panel, 48 h
Test [1] has as its system HL-60(TB) leukemia.
The test system of test [2] is CAKI-1 renal.
Test [3] has as its system OVCAR-4 ovarian.
Test [4] concerns UO-31 renal.
Test [5] deals with MCF7 breast.
Test [6] relates to HOP-92 NSCLC.
The subject of test [7] is SR leukemia.
The subject of test [8] is NCI-H522 lung.
Test [9] has as its system MALME-3M melanoma.
Test [10] concerns HS 578T breast.

As usually defined, the TGI is the concentration at which net growth stops. Read a high TGI as lower sensitivity of the cells. Take `CC(C)[C@H](C)/C=C/[C@@H](C)C1CC[C@H]2[C@@]34C=C[C@]5(C[C@@H](O)CC[C@]5(C)[C@H]3CC[C@]12C)OO4` (stereo partly specified): the TGI in [1] was 57.1 µM; in test [2] it was 55.3 µM; in test [3] it was more than 100 µM; in [4], more than 100 µM; in test [5], more than 100 µM; in test [6] it was 92.3 µM.
Turning to `c1ccc2c[n+](CCCC[n+]3ccc4ccccc4c3)ccc2c1`, the TGI in test [1], in [2], in test [3], in [5] and in test [7] was more than 100 µM throughout.
Take `C/C(=N\Nc1nc2ccccc2[nH]1)c1ncccn1`: the concentration for total growth inhibition (TGI) in test [1] is 0.0343 µM; in test [2] it was 23.7 µM; in test [3] it was more than 100 µM; in [7], more than 100 µM; in test [8], more than 64.3 µM; in test [6] it was 1.93 µM. Moreover, the concentration for total growth inhibition (TGI) was 8.89 µM in [9] and more than 100 µM in test [10].
Regarding `CCOc1ccc2nc3nc(=O)[nH]c(C)c3c(NC(C)(CO)CO)c2c1`, the total growth inhibition concentration (TGI) in [1], in test [2], in [3], in [4], in [5] and in [8] was more than 100 µM each time. Also, the total growth inhibition concentration (TGI) in [6], in test [9] and in test [10] was more than 100 µM each time.
On to `Cc1ccc(S(=O)(=O)OCCC2CN(C(=O)OCc3ccccc3)C(C)(C)O2)cc1` (stereo unspecified), for which the TGI in test [1] is 30 µM; in test [2], more than 100 µM; in test [3] it was more than 100 µM; in test [4], 15.4 µM; in test [5], 33.7 µM; in [7], more than 100 µM. Besides, the TGI was 20.1 µM in test [8], more than 100 µM in test [6] and 43.3 µM in test [9].
As to `Cc1cc(=O)[nH]c(NNC(C#N)c2ccccc2O)n1` (stereo unspecified), the concentration for total growth inhibition (TGI) in test [1] is 50.5 µM; in test [2], 93.6 µM; in [3] it was more than 100 µM; in test [4], 56.8 µM; in test [7], more than 100 µM; in test [8] it was more than 100 µM. Further, the TGI in test [6] and in [9] was more than 100 µM each time.
Turning to `O=C1N2CCC[C@H]2CS1(=O)=O`, the TGI was 39.3 µM in [1]; 18.2 µM in test [2]; 28.6 µM in [3]; 28.5 µM in [4]; 21.8 µM in [5]; 18.5 µM in test [8]. Also, the TGI in [6] is 25.7 µM; in test [9], 28.3 µM; in test [10], more than 100 µM.
For the compound `CCOC(=O)c1cc2c3c(c(C(C)=O)c(OC)c2[nH]1)N(C(=O)CC)CC3`, the TGI is 46.7 µM in test [1]; 35.9 µM in test [2]; 40.9 µM in test [3]; 27 µM in test [4]; 40.4 µM in test [5]; 28.9 µM in test [6]. Also, the TGI worked out at 35.8 µM in test [9] and 57.9 µM in test [10].
Regarding `Cn1c2ccccc2n2c3ncccc3c(=O)cc12`, the concentration for total growth inhibition (TGI) in [2], in test [3], in [4], in test [8], in [6] and in [9] was more than 100 µM in each case.
One may read the GI50 as the concentration at which growth is held to half of that of the control. In the case of `Cc1ccc(N2C(=O)C3CSCN3C2=O)cc1` (stereo unspecified), the total growth inhibition concentration (TGI) in test [1], in [2], in [3], in test [4], in [5] and in test [8] was more than 100 µM in each case. Moreover, the concentration for total growth inhibition (TGI) in test [6] and in test [9] was more than 100 µM each time. Moreover, the GI50 in test [9] is more than 100 µM.
For the compound `COc1ccc(OC)c2c(C)ccnc12`, the total growth inhibition concentration (TGI) in test [2] was more than 100 µM; in test [3] it was more than 71 µM; in test [4] it was 74.3 µM; in [5] it was more than 100 µM; in test [8], 21.8 µM; in [6], 90.8 µM. This compound also registered a TGI in [9] of more than 74.3 µM.
On to `C=CC(C)(C)/C=C/c1ccc(O)cc1`, for which the TGI in [1], in test [2], in test [3], in [5], in test [8] and in test [6] was more than 100 µM throughout. In addition, the TGI in test [9] and in test [10] was more than 100 µM each time.
For the compound `Oc1c(Cl)cc2cc1-c1cc(cc(Cl)c1O)CCc1c(cc(Cl)c(O)c1Cl)-c1cc(Cl)c(c(Cl)c1O)/C=C\2`, the TGI in [1] is more than 50 µM; in [3], 24 µM; in test [7], more than 50 µM; in [6], 34.7 µM; in test [10] it was 33.7 µM.
As for `Oc1ccc(Cl)cc1-c1cc(-c2ccccc2)nc(=S)[nH]1`, the total growth inhibition concentration (TGI) in test [1] was more than 100 µM; in test [2], more than 100 µM; in test [3], more than 100 µM; in test [4], 68.9 µM; in test [5], more than 100 µM; in test [8], more than 100 µM. The TGI in test [6] is 47.6 µM; in test [9] it was more than 100 µM; in test [10] it was more than 100 µM.
With `CC(CCc1nc2ccccc2s1)(c1ccc(O)cc1)c1ccc(O)cc1`, the TGI was 45 µM in [2]; 37 µM in test [3]; 31.3 µM in test [4]; 53.3 µM in test [7]; 32 µM in [8]; 36.7 µM in [6]. Moreover, the total growth inhibition concentration (TGI) in [9] came to 31 µM; in test [10], 52.9 µM.
With `Oc1ccc2ccccc2c1OCc1nnc(CCCCCCCCc2nnc(COc3c(O)ccc4ccccc34)n2Nc2ccccc2)n1Nc1ccccc1`, the TGI in test [2] is more than 56.5 µM; in test [3], more than 100 µM; in [4], more than 82 µM; in test [5], more than 100 µM; in [8], 26.6 µM; in test [6], 61.5 µM. The results for the total growth inhibition concentration (TGI) in test [9] and in test [10] were 56.2 µM and 65.2 µM, respectively.
`O=C1c2ccccc2C2(c3ccc(F)cc3)NCCN12` (stereo unspecified): the TGI in test [1], in test [2], in test [3], in [4], in test [5] and in [8] was more than 100 µM each time. In addition, the total growth inhibition concentration (TGI) in test [9] and in [10] was more than 100 µM in each case.
In the case of `CC(C)(C)OC(=O)C(C#N)C(=O)c1ccc(C(=O)O)[nH]1` (stereo unspecified), the concentration for total growth inhibition (TGI) was 62.1 µM in test [1]; 41.5 µM in [2]; 52.9 µM in test [3]; more than 100 µM in test [4]; more than 100 µM in test [8]; 73.6 µM in test [6]. The TGI in [9] was more than 100 µM.
Regarding `Cc1cc(C)c2c(c1)C/C(=C\c1cccc(C)c1C(=O)O)C2=O`, the total growth inhibition concentration (TGI) in test [1], in test [2], in test [3], in test [4], in [7] and in [8] was more than 100 µM throughout. Moreover, the TGI in test [6] and in test [9] was more than 100 µM throughout.
As for `O=C1c2ccncc2C(=O)c2c(O)ccc(O)c21`, the TGI in test [1] came out at 5.41 µM; in test [3], 23.6 µM; in test [4] it was 29.7 µM; in [7], 52.3 µM; in test [6], 32.4 µM; in test [9], 5.44 µM.
`O=C1C(N2CCN(CCOCCO)CC2)=C(Cl)C(=O)c2ncccc21`: the GI50 in test [1] is 2.24 µM; in test [5], 18.3 µM; in [8] it was 17.7 µM; in [6] it was 16.7 µM; in [9], 19.3 µM. The TGI was 8.29 µM and 5.91 µM in test [1]; 31.8 µM in test [2]; 34.8 µM in test [3]; 33.6 µM in test [4]; 5.97 µM and 36.7 µM in test [5]; 4.22 µM and 32.6 µM in [8]. In addition, the total growth inhibition concentration (TGI) in test [6] was 6.27 µM and 31.4 µM; in test [9], 33.8 µM.
As to `Cc1cc(S(=O)(=O)Nc2nc3cscc3c(=O)n2N)c(S)cc1Cl`, the TGI in test [1] was more than 100 µM; in test [2] it was more than 100 µM; in test [3] it was more than 100 µM; in [5], more than 100 µM; in test [8], 77.9 µM; in test [9], 90.4 µM.
For `O=c1[nH]c2ccccc2c(O)c1/C=N/C(=S)NC1CCCCC1`, the total growth inhibition concentration (TGI) in [1], in [2], in test [3], in test [4], in test [5] and in test [8] was more than 100 µM in each case. Further, the TGI in test [6] and in test [10] was more than 100 µM in each case.
Consider `COC(=O)C(Cc1c[nH]c2ccccc12)NC(=O)C(Cc1c[nH]c2ccccc12)NC(=O)C(Cc1c[nH]c2ccccc12)NC(=O)C(Cc1c[nH]c2ccccc12)NC(=O)C(Cc1c[nH]c2ccccc12)NC(=O)C(Cc1c[nH]c2ccccc12)NC(=O)C(Cc1c[nH]c2ccccc12)NC(=O)OC(C)(C)C` (stereo unspecified) (Boc-WWWWWWW-OMe; configuration not given here), for which the TGI in [1], in [2], in test [3], in [4], in test [5] and in test [7] was more than 100 µM throughout. For the same compound, the TGI in test [8] and in test [9] was more than 100 µM throughout.
Consider `O=C(O)Cn1c2c(c3c1-c1ccccc1C3=O)C(=O)CCC2`, for which the GI50 in test [1], in test [2], in test [3], in test [4], in test [5] and in [8] was more than 100 µM in each case. The GI50 in [6] is 20 µM; in test [9], more than 100 µM; in test [10], more than 100 µM. For the same compound, the concentration for total growth inhibition (TGI) in [1], in [2], in test [3], in test [4], in [5] and in [8] was more than 100 µM each time. Moreover, the concentration for total growth inhibition (TGI) in test [6], in test [9] and in [10] was more than 100 µM each time.
Regarding `O=C(c1ccccc1)c1nnn(Cc2ccccc2Cn2nnc(C(=O)c3ccccc3)c2C(=O)c2ccccc2)c1C(=O)c1ccccc1`, the concentration for total growth inhibition (TGI) in test [1], in test [2], in test [3], in test [4], in [7] and in test [8] was more than 100 µM throughout. Also, the TGI in test [6] and in [9] was more than 100 µM throughout.
In the case of `COc1cccc2c1OC1c3ccccc3OCC1(O)C2` (stereo unspecified), the TGI in test [2], in test [3], in [4], in test [5], in test [8] and in test [6] was more than 100 µM throughout. The compound also gave a concentration for total growth inhibition (TGI) in [9] of more than 100 µM.
Take `Cc1cn(C2CC(COCc3ccccc3)N(CCO[Si](C)(C)C(C)(C)C)O2)c(=O)[nH]c1=O` (stereo unspecified): the total growth inhibition concentration (TGI) was 32.7 µM in [2]; 33.4 µM in [3]; 28.2 µM in test [4]; 33 µM in [5]; 71.4 µM in [7]; 31.4 µM in test [8]. Further, the values for the TGI in test [6] and in test [9] were 25.7 µM and 34.3 µM, respectively.
For the compound `O=c1[nH]nc(-c2ccccc2)c2[nH]c3c(c12)Cc1ccccc1-3`, the TGI in [1] was 7.48 µM; in [2] it was more than 100 µM; in test [3], more than 100 µM; in test [4] it was more than 100 µM; in [5], more than 100 µM; in test [6], 9.68 µM. In addition, the TGI in [9] was more than 41.6 µM; in test [10], more than 100 µM.
Consider `CCC1=C(C[C@H]2NCCc3cc(OC)c(OC)cc32)C[C@H]2c3cc(OC)c(OC)cc3CCN2C1`, for which the TGI in [1] was 0.0765 µM; in [2], 0.199 µM; in [3], 0.0717 µM; in test [4] it was 0.923 µM; in test [7] it was 55.1 µM; in test [8], 0.0688 µM. Besides, the concentration for total growth inhibition (TGI) in test [6] is 0.095 µM; in test [9], 0.637 µM.
Turning to `Cc1ccc(-n2nncc2[Si](C)(C)C)s1`, the total growth inhibition concentration (TGI) in test [2], in test [3], in [4], in test [5], in [8] and in [6] was more than 100 µM throughout. Further, the TGI in test [9] and in test [10] was more than 100 µM in each case.
